Experimental data from paper PMC9916762, “Impact of Hydrophobic Chains in Five-Coordinate Glucoconjugate Pt(II) Anticancer Agents” (International Journal of Molecular Sciences, 2023).

Key:
[1] = target: T1, hen egg white lysozyme (HEWL) (Gallus gallus, UniProt P00698); experiment: X-ray structure of adducts with HEWL; type: binding
T1 construct: model protein hen egg white lysozyme (HEWL); purchased Merck KGaA (Darmstadt, Germany); host or cells: hen egg white (natural source, by the protein's name)
Method: To obtain information on the reactivity of 1-Me,Me with proteins, the X-ray structure of the adducts that the Pt compound forms with HEWL was solved.
The structures were obtained using crystals grown in 20% ethylene glycol, 0.1 M sodium acetate buffer at pH 4.0, and 0.6 M sodium nitrate (Structure A, Figure 8A) and in 2.0 M sodium formate and 0.1 M Hepes at pH 7.5 (Structure B, Figure 8B), refined at 1.25 and 1.33 Å resolutions, respectively (Table S2).
HEWL crystals were grown using the hanging drop vapour diffusion method and the following reservoirs: • (a) 20% ethylene glycol, 0.10 M sodium acetate at pH 4.0, and 0.60 M sodium nitrate • (b) 2.0 M sodium formate and 0.1 M HEPES at pH 7.5.
The crystals of the protein adduct with 1-Me,Me were obtained by the soaking procedure. The HEWL crystals were soaked in a solution consisting of 83% reservoir, 17% DMSO, and 3.3 mM 1-Me,Me.
The structures of the Pt–HEWL adducts were solved by the molecular replacement method, using the HEWL coordinates deposited in the PDB under the accession code 193L [40] as a model. Refinements were carried out with a CCP4 REFMAC5 [46], and the model building, adjustments, and inspection of the electron density maps was manually carried out using WinCoot.
The Pt binding sites were unambiguously identified by comparing 2Fo–Fc, residual Fo–Fc, and anomalous difference electron density maps. […]

[2] = tested on: immortalized human keratinocytes (HaCaT); experiment: MTT cell viability assay, HaCaT; type: cell-based; settings: 48 h incubation
Text: (§1) The immortalized human keratinocytes (HaCaT) were from Innoprot.

[3] = tested on: murine fibroblast BALB/c-3T3 transformed with the SV40 virus (SVT2); experiment: MTT cell viability assay, SVT2; type: cell-based
Text: as §1

[4] = In-solution stability in aqueous solvents (1H NMR, UV-vis); type: physicochemical
Text: Attempts to evaluate their stability in aqueous solutions were complicated due the poor solubility of the complexes in water. Only for 1-Me,Me was it possible to prepare a solution in the mixed solvent D2O:DMSO-d6 10:1. […] To further study the stability of 1-Me,Me in aqueous solvents, UV–vis absorption spectra over time were collected under the two experimental conditions (20% ethylene glycol, 0.1 M sodium acetate buffer at pH 4.0 and 0.6 M sodium nitrate and 2.0 M sodium formate, 0.1 M Hepes buffer at pH 7.5), used to obtain crystals of the adducts with the model protein hen egg white lysozyme (HEWL). HEWL has been used as a model system to study the interaction with proteins of several metallodrugs, including cisplatin [31, 32, 33], oxaliplatin [34, 35], and carboplatin [31, 32]. […] Over time, a red shift of the λmax from 275 to 278 nm and of the peak at 313 nm, which shifted up to 317 nm, was observed. […] Such results convinced us that five-coordinate compounds are the species administered to cells if DMSO stock solutions are immediately diluted in an aqueous medium.
The stability of the 1-R,R’ complexes in DMSO was studied by dissolving 5 mg of each complex in 250 μL of DMSO-d6 and then diluting 200 μL of this solution with 300 μL of DMSO-d6. […] The ^1H-NMR spectra of the resulting solutions were recorded over time. […]

[5] = Octanol/water partition coefficient, shake-flask method; type: physicochemical; settings: n-octanol/water, UV-vis
Method: The partition coefficients in octanol/water (log Po/w) were measured using the shake-flask method, by calculating the equilibrium concentrations through UV spectra (Table 1).
Partition coefficients for the platinum complexes were determined in triplicate in an n-octanol/water system, with different ratios (1:1, 1:2, 2:1). Each complex was dissolved in n-octanol at the concentrations 16.7, 12.5, or 10 μM and subsequently, an appropriate volume of water was added. The mixtures were shaken mechanically for 1 h to ensure the distribution between the two solvent phases. The samples were then centrifuged (13,000 rpm, 10 min). Afterwards, the platinum concentration was determined in the octanol phases by UV–vis spectrophotometry, after collecting a calibration line for each complex. Results are expressed as the logarithm of the partition coefficient of octanol/water (log Po/w), which is the logarithm of the concentration of platinum in the n-octanol divided by its concentration in the aqueous layer.

SVT2 cells = experiment: Western blot of pro-caspases 9 and 3, SVT2; type: cell-based, murine; settings: SVT2, 9.8 μM, 48 h
Method: In particular, SVT2 and A431 were incubated for 48 h with 1-Me,Me and 1-Oct,Me, using the IC50 value concentrations. At the end of incubation, uptake and cell death mechanisms were evaluated. […] Finally, apoptosis was investigated by Western blot analyses using specific antibodies against pro-caspases 9 and 3.
The SVT2 were seeded on six-well plates at a density of 2.5 × 10^5 cells/well, whereas A431 was seeded at a density of 3 × 10^5 cells/well. After 24 h, cells were treated with 9.8 μM of 1-Me,Me or 2.3 μM 1-Oct,Me. After 48 h of incubation, Western blot analyses were performed by using pro-caspase 9 (Cell Signaling Technology, Danvers, MA, USA) and pro-caspase 3 (Abcam, Cambridge, MA, USA) antibodies, as reported by Del Giudice et al. Protein intensity levels were normalized using β-actin (Sigma-Aldrich, St. Louis, MO, USA). The chemiluminescence detection system was purchased from Bio-Rad (Hercules, CA, USA).

Substance: Platinum(1+), (2,9-dimethyl-1,10-phenanthroline- N1,N10)(η2-ethene)methyl[1,3-dihydro-1,3-dimethyl-4-[1-[2,3,4,6-tetrakis-O-(acetyl)-β-D-glucopyranosyl]-1H-1,2,3-triazol-4-yl]-2H-imidazol-2-ylidene], 1,1,1-trifluoromethanesulfonate [1-Me,Me]
- Pt binding sites on HEWL ([1]; Structure A: 20% ethylene glycol, 0.1 M sodium acetate pH 4.0, 0.6 M sodium nitrate): two Pt binding sites were observed
- Pt binding sites on HEWL ([1]; Structure B: 2.0 M sodium formate, 0.1 M Hepes pH 7.5): a single Pt binding site was observed
- IC50 [2]: 8.4 ± 1.7 µM
- IC50 ([3]; 48 h incubation, MTT): 9.8 ± 0.3 µM
- SI (selectivity index) ([3]; ratio IC50 BALB-c/3T3 / IC50 SVT2): 2.65
- stability, UV-vis spectra over time ([4]; 50 μM, 2.0 M sodium formate, 0.1 M Hepes buffer pH 7.5): stable over time
- stability, NMR spectra over time ([4]; D2O:DMSO-d6 10:1, after 24 h): no appreciable changes
- Log Po/w [5]: 0.42
- pro-caspases 9 and 3 levels (SVT2 cells): significant decrease in pro-caspases 9 and 3 levels
